Measured values reported in PubChem BioAssay AID256 (DTP/NCI, 2004).
Where “and” joins values, the source holds several entries; their conditions need not be identical. Identical values can stand only once. Toxic doses and inconclusive results are not listed.

Test system: CD2F1 mice, L1210 leukemia ip, survival T/C
Experiment: NCI In Vivo Anticancer Drug Screen. Data for tumor model L1210 Leukemia (intraperitoneal) in CD2F1 (CDF1) mice
Details: higher = longer survival
In short: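 Compound-dosed mice with transplantable tumor versus matched vehicle controls; endpoint ratio T/C reported.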

## CC1CCC(NC(=O)N(CCCl)N=O)CC1 (stereo unspecified)
endpoint: mean survival time, dose: 0.5 mg/kg/injection, schedule: Q01DX009 (ip), vehicle: saline + alcohol
  T/C: 96 % of control
endpoint: mean survival time, dose: 1.0 mg/kg/injection, schedule: Q01DX009 (ip), vehicle: saline + alcohol
  T/C: 109 % of control
endpoint: mean survival time, dose: 2.0 mg/kg/injection, schedule: Q01DX009 (ip), vehicle: saline + alcohol
  T/C: 109 % of control
endpoint: mean survival time, dose: 3.12 mg/kg/injection, schedule: Q01DX001 (ip), vehicle: other
  T/C: 105 % of control and 110 % of control
endpoint: mean survival time, dose: 3.13 mg/kg/injection, schedule: Q01DX001 (ip), vehicle: saline with Tween-80
  T/C: 103 % of control
endpoint: mean survival time, dose: 4.0 mg/kg/injection, schedule: Q01DX001 (ip), vehicle: other
  T/C: 107 % of control
endpoint: mean survival time, dose: 4.0 mg/kg/injection, schedule: Q01DX001 (ip), vehicle: saline + alcohol
  T/C: 104 % of control
endpoint: mean survival time, dose: 4.0 mg/kg/injection, schedule: Q01DX009 (ip), vehicle: saline + alcohol
  T/C: 151 % of control and 185 % of control
endpoint: mean survival time, dose: 5.0 mg/kg/injection, schedule: Q04DX003 (ip), vehicle: other
  T/C: 192 % of control
endpoint: mean survival time, dose: 6.25 mg/kg/injection, schedule: Q01DX001 (ip), vehicle: saline + alcohol
  T/C: 98 % of control
endpoint: mean survival time, dose: 6.25 mg/kg/injection, schedule: Q01DX001 (ip), vehicle: saline with Tween-80
  T/C: 114 % of control
endpoint: mean survival time, dose: 8.0 mg/kg/injection, schedule: Q01DX009 (ip), vehicle: saline + alcohol
  T/C: 175 % of control and 229 % of control
endpoint: mean survival time, dose: 8.0 mg/kg/injection, schedule: Q08DX002 (ip), vehicle: saline + alcohol
  T/C: 206 % of control
endpoint: mean survival time, dose: 10.0 mg/kg/injection, schedule: Q04DX003 (ip), vehicle: other
  T/C: 371 % of control
endpoint: mean survival time, dose: 12.5 mg/kg/injection, schedule: Q01DX001 (ip), vehicle: distilled water + Tween-80
  T/C: 340 % of control
endpoint: mean survival time, dose: 12.5 mg/kg/injection, schedule: Q01DX001 (ip), vehicle: saline + alcohol
  T/C: 104 % of control
endpoint: mean survival time, dose: 16.0 mg/kg/injection, schedule: Q01DX001 (ip), vehicle: other
  T/C: 283 % of control
endpoint: mean survival time, dose: 16.0 mg/kg/injection, schedule: Q01DX001 (ip), vehicle: saline + alcohol
  T/C: 120 % of control
endpoint: mean survival time, dose: 16.0 mg/kg/injection, schedule: Q01DX009 (ip), vehicle: saline + alcohol
  T/C: 207 % of control
endpoint: mean survival time, dose: 16.0 mg/kg/injection, schedule: Q08DX002 (ip), vehicle: saline + alcohol
  T/C: 289 % of control
endpoint: mean survival time, dose: 20.0 mg/kg/injection, schedule: Q04DX003 (ip), vehicle: other
  T/C: 392 % of control
endpoint: mean survival time, dose: 24.0 mg/kg/injection, schedule: Q01DX009 (ip), vehicle: saline + alcohol
  T/C: 107 % of control
endpoint: mean survival time, dose: 24.0 mg/kg/injection, schedule: Q08DX002 (ip), vehicle: saline + alcohol
  T/C: 550 % of control
endpoint: mean survival time, dose: 25.0 mg/kg/injection, schedule: Q01DX001 (ip), vehicle: distilled water + Tween-80
  T/C: 406 % of control
endpoint: mean survival time, dose: 25.0 mg/kg/injection, schedule: Q01DX001 (ip), vehicle: saline + alcohol
  T/C: 95 % of control
endpoint: mean survival time, dose: 25.0 mg/kg/injection, schedule: Q01DX001 (ip), vehicle: saline with Tween-80
  T/C: 393 % of control
endpoint: mean survival time, dose: 27.0 mg/kg/injection, schedule: Q01DX001 (ip), vehicle: saline with Tween-80
  T/C: 813 % of control
endpoint: mean survival time, dose: 32.0 mg/kg/injection, schedule: Q01DX001 (ip), vehicle: other
  T/C: 357 % of control
endpoint: mean survival time, dose: 32.0 mg/kg/injection, schedule: Q01DX001 (ip), vehicle: saline + alcohol
  T/C: 451 % of control
endpoint: mean survival time, dose: 32.0 mg/kg/injection, schedule: Q01DX009 (ip), vehicle: saline + alcohol
  T/C: 256 % of control and 103 % of control
endpoint: mean survival time, dose: 40.0 mg/kg/injection, schedule: Q01DX001 (ip), vehicle: saline with Tween-80
  T/C: 555 % of control
endpoint: mean survival time, dose: 48.0 mg/kg/injection, schedule: Q01DX009 (ip), vehicle: saline + alcohol
  T/C: 96 % of control
endpoint: mean survival time, dose: 50.0 mg/kg/injection, schedule: Q01DX001 (ip), vehicle: saline + alcohol
  T/C: 158 % of control
endpoint: mean survival time, dose: 50.0 mg/kg/injection, schedule: Q01DX001 (ip), vehicle: saline with Tween-80
  T/C: 213 % of control and 473 % of control
endpoint: mean survival time, dose: 64.0 mg/kg/injection, schedule: Q01DX001 (ip), vehicle: other
  T/C: 204 % of control
endpoint: mean survival time, dose: 64.0 mg/kg/injection, schedule: Q01DX009 (ip), vehicle: saline + alcohol
  T/C: 86 % of control
endpoint: median survival time, dose: 3.12 mg/kg/injection, schedule: Q01DX001 (ip), vehicle: other
  T/C: 121 % of control and 110 % of control
endpoint: median survival time, dose: 3.12 mg/kg/injection, schedule: Q01DX001 (ip), vehicle: saline
  T/C: 98 % of control and 101 % of control
endpoint: median survival time, dose: 6.25 mg/kg/injection, schedule: Q01DX001 (ip), vehicle: other
  T/C: 158 % of control
endpoint: median survival time, dose: 6.25 mg/kg/injection, schedule: Q01DX001 (ip), vehicle: saline
  T/C: 98 % of control and 103 % of control
endpoint: median survival time, dose: 9.0 mg/kg/injection, schedule: Q04DX002 (ip), vehicle: saline + Tween-80 + alcohol
  T/C: 180 % of control
endpoint: median survival time, dose: 12.5 mg/kg/injection, schedule: Q01DX001 (ip), vehicle: other
  T/C: 159 % of control and 297 % of control
endpoint: median survival time, dose: 12.5 mg/kg/injection, schedule: Q01DX001 (ip), vehicle: saline
  T/C: 103 % of control
endpoint: median survival time, dose: 14.4 mg/kg/injection, schedule: Q01DX001 (ip), vehicle: saline + alcohol
  T/C: 718 % of control
endpoint: median survival time, dose: 14.4 mg/kg/injection, schedule: Q01DX001 (ip), vehicle: saline with Tween-80
  T/C: 121 % of control
endpoint: median survival time, dose: 14.4 mg/kg/injection, schedule: Q04DX002 (ip), vehicle: saline + alcohol
  T/C: 622 % of control
endpoint: median survival time, dose: 15.0 mg/kg/injection, schedule: Q04DX002 (ip), vehicle: saline + Tween-80 + alcohol
  T/C: 351 % of control
endpoint: median survival time, dose: 24.0 mg/kg/injection, schedule: Q01DX001 (ip), vehicle: other
  T/C: 581 % of control
endpoint: median survival time, dose: 24.0 mg/kg/injection, schedule: Q01DX001 (ip), vehicle: saline + alcohol
  T/C: 718 % of control
endpoint: median survival time, dose: 24.0 mg/kg/injection, schedule: Q04DX002 (ip), vehicle: saline + alcohol
  T/C: 623 % of control
endpoint: median survival time, dose: 25.0 mg/kg/injection, schedule: Q01DX001 (ip), vehicle: other
  T/C: 297 % of control and 340 % of control
endpoint: median survival time, dose: 25.0 mg/kg/injection, schedule: Q04DX002 (ip), vehicle: saline + Tween-80 + alcohol
  T/C: 244 % of control
endpoint: median survival time, dose: 36.0 mg/kg/injection, schedule: Q01DX001 (ip), vehicle: other
  T/C: 580 % of control
endpoint: median survival time, dose: 40.0 mg/kg/injection, schedule: Q01DX001 (ip), vehicle: saline + alcohol
  T/C: 720 % of control
endpoint: median survival time, dose: 40.0 mg/kg/injection, schedule: Q01DX001 (ip), vehicle: saline with Tween-80
  T/C: 157 % of control
endpoint: median survival time, dose: 40.0 mg/kg/injection, schedule: Q01DX001 (oral), vehicle: saline with Tween-80
  T/C: 393 % of control and 590 % of control and 983 % of control
endpoint: median survival time, dose: 40.0 mg/kg/injection, schedule: Q04DX002 (ip), vehicle: saline + alcohol
  T/C: 286 % of control
endpoint: median survival time, dose: 42.0 mg/kg/injection, schedule: Q04DX002 (ip), vehicle: saline + Tween-80 + alcohol
  T/C: 170 % of control
endpoint: median survival time, dose: 50.0 mg/kg/injection, schedule: Q01DX001 (ip), vehicle: other
  T/C: 158 % of control and 193 % of control
endpoint: median survival time, dose: 50.0 mg/kg/injection, schedule: Q01DX001 (oral), vehicle: saline with Tween-80
  T/C: 193 % of control and 983 % of control (2×)
endpoint: median survival time, dose: 60.0 mg/kg/injection, schedule: Q01DX001 (ip), vehicle: other
  T/C: 119 % of control
endpoint: median survival time, dose: 60.0 mg/kg/injection, schedule: Q01DX001 (oral), vehicle: saline with Tween-80
  T/C: 185 % of control and 983 % of control (2×)
endpoint: median survival time, dose: 66.7 mg/kg/injection, schedule: Q01DX001 (ip), vehicle: saline + alcohol
  T/C: 328 % of control
endpoint: median survival time, dose: 66.7 mg/kg/injection, schedule: Q01DX001 (ip), vehicle: saline with Tween-80
  T/C: 463 % of control
endpoint: median survival time, dose: 100.0 mg/kg/injection, schedule: Q01DX001 (ip), vehicle: other
  T/C: 116 % of control

## COC(=O)c1ccc(OC(=O)Nc2ccc(N(CCCl)CCCl)cc2)cc1
endpoint: mean survival time, dose: 50.0 mg/kg/injection, schedule: Q01DX001 (ip), vehicle: Klucel (hydroxypropylcellulose) (HPC)
  T/C: 95 % of control
